# Experimental data: patent US20110039721A1, “METHOD FOR PREDICTION ABOUT CARCINOGENICITY OF SUBSTANCE IN RODENT” (Chemicals Evaluation and Research Institute, priority 2007, published 2011)
# Tests used:
# rodent = details: in vivo; cited from earlier work
# liver = details: in vivo; cited from earlier work
# [1] = system: mRNA expressed from the genes (A) to (D) in rat liver; test: Behavior of genes (mRNA expression level, oligo-DNA microarray) in rat liver after 28-day oral administration; type: in vivo; details: rat liver, oral once daily 28 days; for Behavior of gene caused by administration of chemical substance, Gene No. 4846 / Behavior of gene caused by administration of chemical substance, Gene No. 4218 / Behavior of gene caused by administration of chemical substance, Gene No. 2026 / Behavior of gene caused by administration of chemical substance, Gene No. 6182 / Behavior of gene caused by administration of chemical substance, Gene No. 5600: (A); for Behavior of gene caused by administration of chemical substance, Gene No. 4846: Unigene Rn.144554, defined direction +; for Behavior of gene caused by administration of chemical substance, Gene No. 4218: Unigene Rn.167075, defined direction +, significant = 1.5 times or more or 1/1.5 or less of control; for Behavior of gene caused by administration of chemical substance, Gene No. 2026: Unigene Rn.167075, defined direction −; for Behavior of gene caused by administration of chemical substance, Gene No. 6182: Unigene Rn.5834, defined direction +; for Behavior of gene caused by administration of chemical substance, Gene No. 5600: Unigene Rn.9836, defined direction +; for Behavior of gene caused by administration of chemical substance, Gene No. 1494 / Behavior of gene caused by administration of chemical substance, Gene No. 2045 / Behavior of gene caused by administration of chemical substance, Gene No. 2203: (B); for Behavior of gene caused by administration of chemical substance, Gene No. 1494: Unigene Rn.1430, defined direction −; for Behavior of gene caused by administration of chemical substance, Gene No. 2045: Unigene Rn.19329, defined direction +; for Behavior of gene caused by administration of chemical substance, Gene No. 2203: Unigene Rn.21240, defined direction +; for Behavior of gene caused by administration of chemical substance, Gene No. 533 / Behavior of gene caused by administration of chemical substance, Gene No. 725 / Behavior of gene caused by administration of chemical substance, Gene No. 1163 / Behavior of gene caused by administration of chemical substance, Gene No. 4973 / Behavior of gene caused by administration of chemical substance, Gene No. 4095 / Behavior of gene caused by administration of chemical substance, Gene No. 1334 / Behavior of gene caused by administration of chemical substance, Gene No. 6620 / Behavior of gene caused by administration of chemical substance, Gene No. 6303 / Behavior of gene caused by administration of chemical substance, Gene No. 5878 / Behavior of gene caused by administration of chemical substance, Gene No. 1131 / Behavior of gene caused by administration of chemical substance, Gene No. 1562 / Behavior of gene caused by administration of chemical substance, Gene No. 1741 / Behavior of gene caused by administration of chemical substance, Gene No. 893 / Behavior of gene caused by administration of chemical substance, Gene No. 6026 / Behavior of gene caused by administration of chemical substance, Gene No. 154 / Behavior of gene caused by administration of chemical substance, Gene No. 1993 / Behavior of gene caused by administration of chemical substance, Gene No. 813 / Behavior of gene caused by administration of chemical substance, Gene No. 2494 / Behavior of gene caused by administration of chemical substance, Gene No. 2546 / Behavior of gene caused by administration of chemical substance, Gene No. 3776 / Behavior of gene caused by administration of chemical substance, Gene No. 3929 / Behavior of gene caused by administration of chemical substance, Gene No. 1119 / Behavior of gene caused by administration of chemical substance, Gene No. 6742 / Behavior of gene caused by administration of chemical substance, Gene No. 5634: (C); for Behavior of gene caused by administration of chemical substance, Gene No. 533: Unigene Rn.106184, defined direction +; for Behavior of gene caused by administration of chemical substance, Gene No. 725: Unigene Rn.108075, defined direction −; for Behavior of gene caused by administration of chemical substance, Gene No. 1163: Unigene Rn.11766, defined direction +; for Behavior of gene caused by administration of chemical substance, Gene No. 4973: Unigene Rn.118529, defined direction −; for Behavior of gene caused by administration of chemical substance, Gene No. 4095: Unigene Rn.119024, defined direction −; for Behavior of gene caused by administration of chemical substance, Gene No. 1334 / Behavior of gene caused by administration of chemical substance, Gene No. 6620: Unigene Rn.120914, defined direction +; for Behavior of gene caused by administration of chemical substance, Gene No. 6303: Unigene Rn.123063, defined direction −; for Behavior of gene caused by administration of chemical substance, Gene No. 5878: Unigene Rn.143213, defined direction −; for Behavior of gene caused by administration of chemical substance, Gene No. 1131: Unigene Rn.144946, defined direction −; for Behavior of gene caused by administration of chemical substance, Gene No. 1562: Unigene Rn.14744, defined direction −; for Behavior of gene caused by administration of chemical substance, Gene No. 1741: Unigene Rn.1647, defined direction −; for Behavior of gene caused by administration of chemical substance, Gene No. 893: Unigene Rn.164817, defined direction +; for Behavior of gene caused by administration of chemical substance, Gene No. 6026: Unigene Rn.167685, defined direction −; for Behavior of gene caused by administration of chemical substance, Gene No. 154: Unigene Rn.185941, defined direction −; for Behavior of gene caused by administration of chemical substance, Gene No. 1993: Unigene Rn.18728, defined direction −; for Behavior of gene caused by administration of chemical substance, Gene No. 813: Unigene Rn.201760, defined direction +; for Behavior of gene caused by administration of chemical substance, Gene No. 2494: Unigene Rn.23969, defined direction +; for Behavior of gene caused by administration of chemical substance, Gene No. 2546: Unigene Rn.24561, defined direction −; for Behavior of gene caused by administration of chemical substance, Gene No. 3776: Unigene Rn.43232, defined direction −; for Behavior of gene caused by administration of chemical substance, Gene No. 3929: Unigene Rn.4620, defined direction +; for Behavior of gene caused by administration of chemical substance, Gene No. 1119: Unigene Rn.9757, defined direction +; for Behavior of gene caused by administration of chemical substance, Gene No. 6742: Unigene Rn.9779, defined direction +; for Behavior of gene caused by administration of chemical substance, Gene No. 5634: Unigene Rn.9862, defined direction −; for Behavior of gene caused by administration of chemical substance, Gene No. 5726: (D), Unigene Rn.9939, defined direction −
# Procedure, shortened: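 Rat liver RNA after 28 days of daily gavage dosing (male F344, 5 weeks old, four per group). A change reaching 1.5-fold, or 1/1.5, against solvent control scores as significant; opposite direction versus another carcinogen scores as not significant.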
Compound,Carcinogenicity (rodent),Liver carcinogenicity (liver),"Behavior of gene caused by administration of chemical substance, Gene No. 4846 [1]","Behavior of gene caused by administration of chemical substance, Gene No. 4218 [1]","Behavior of gene caused by administration of chemical substance, Gene No. 2026 [1]","Behavior of gene caused by administration of chemical substance, Gene No. 6182 [1]","Behavior of gene caused by administration of chemical substance, Gene No. 5600 [1]","Behavior of gene caused by administration of chemical substance, Gene No. 1494 [1]","Behavior of gene caused by administration of chemical substance, Gene No. 2045 [1]","Behavior of gene caused by administration of chemical substance, Gene No. 2203 [1]","Behavior of gene caused by administration of chemical substance, Gene No. 533 [1]","Behavior of gene caused by administration of chemical substance, Gene No. 725 [1]","Behavior of gene caused by administration of chemical substance, Gene No. 1163 [1]","Behavior of gene caused by administration of chemical substance, Gene No. 4973 [1]","Behavior of gene caused by administration of chemical substance, Gene No. 4095 [1]","Behavior of gene caused by administration of chemical substance, Gene No. 1334 [1]","Behavior of gene caused by administration of chemical substance, Gene No. 6620 [1]","Behavior of gene caused by administration of chemical substance, Gene No. 6303 [1]","Behavior of gene caused by administration of chemical substance, Gene No. 5878 [1]","Behavior of gene caused by administration of chemical substance, Gene No. 1131 [1]",also measured
"CCN(CC)N=O [TS011, Diethylnitrosamine]",C+,Cr+,+,+,+,+,+,+,−,−,+,−,−,+,+,−,−,+,−,−,"Behavior of gene caused by administration of chemical substance, Gene No. 1562 [1]: +; Behavior of gene caused by administration of chemical substance, Gene No. 1741 [1]: +; Behavior of gene caused by administration of chemical substance, Gene No. 893 [1]: +; Behavior of gene caused by administration of chemical substance, Gene No. 6026 [1]: +; Behavior of gene caused by administration of chemical substance, Gene No. 154 [1]: +; Behavior of gene caused by administration of chemical substance, Gene No. 1993 [1]: +; Behavior of gene caused by administration of chemical substance, Gene No. 813 [1]: −; Behavior of gene caused by administration of chemical substance, Gene No. 2494 [1]: +; Behavior of gene caused by administration of chemical substance, Gene No. 2546 [1]: +; Behavior of gene caused by administration of chemical substance, Gene No. 3776 [1]: −; Behavior of gene caused by administration of chemical substance, Gene No. 3929 [1]: −; Behavior of gene caused by administration of chemical substance, Gene No. 1119 [1]: −; Behavior of gene caused by administration of chemical substance, Gene No. 6742 [1]: −; Behavior of gene caused by administration of chemical substance, Gene No. 5634 [1]: −; Behavior of gene caused by administration of chemical substance, Gene No. 5726 [1]: −"
"O=NN1CCOCC1 [TS014, N-Nitrosomorpholine]",C+,Cr+,+,+,+,+,+,+,−,−,−,−,+,−,−,−,−,−,−,−,"Behavior of gene caused by administration of chemical substance, Gene No. 1562 [1]: −; Behavior of gene caused by administration of chemical substance, Gene No. 1741 [1]: −; Behavior of gene caused by administration of chemical substance, Gene No. 893 [1]: −; Behavior of gene caused by administration of chemical substance, Gene No. 6026 [1]: −; Behavior of gene caused by administration of chemical substance, Gene No. 154 [1]: −; Behavior of gene caused by administration of chemical substance, Gene No. 1993 [1]: +; Behavior of gene caused by administration of chemical substance, Gene No. 813 [1]: +; Behavior of gene caused by administration of chemical substance, Gene No. 2494 [1]: −; Behavior of gene caused by administration of chemical substance, Gene No. 2546 [1]: −; Behavior of gene caused by administration of chemical substance, Gene No. 3776 [1]: −; Behavior of gene caused by administration of chemical substance, Gene No. 3929 [1]: −; Behavior of gene caused by administration of chemical substance, Gene No. 1119 [1]: −; Behavior of gene caused by administration of chemical substance, Gene No. 6742 [1]: −; Behavior of gene caused by administration of chemical substance, Gene No. 5634 [1]: −; Behavior of gene caused by administration of chemical substance, Gene No. 5726 [1]: −"
